We go through five compounds from ChEMBL document CHEMBL1121671, “Synthesis of analogues of acetylmethadol and methadol as potential narcotic antagonists” (J Med Chem, 1981).

Assay [1] deals with Mus musculus. Briefly: Compound was evaluated for antagonism of tail-flick analgesia induced by 6.5 mg/kg of morphine sulfate at 0.3 mg/kg. The assay is classed as functional.
In assay [2] the test system is Mus musculus. As to the kind of experiment: Compound was evaluated for antagonism of tail-flick analgesia induced by 6.5 mg/kg of morphine sulfate at 1 mg/kg. The assay is classed as functional.
The species named for assay [3] is Mus musculus. As to the kind of experiment: Compound was evaluated for narcotic analgesia activity in mice by hot plate test. The assay is classed as functional.
Assay [4] is filed under the species Mus musculus. As to the kind of experiment: Compound was evaluated for narcotic analgesia activity in mice by mouse writhing assay. The format is functional. (An intraperitoneal irritant provokes the stretching counted in writhing tests.)
The species entered for assay [5] is Mus musculus. Briefly: Compound was evaluated for narcotic analgesia activity in mice by the tail flick test. The assay is classed as functional.
Assay [6] has as its target T1, Opioid receptor (Rattus norvegicus, UniProt P33533+P34975+P33535). As to the kind of experiment: Compound was evaluated for the inhibition of [3H]- naloxone Opioid receptors binding using rat brain membrane in the absence of Na.
Assay [7] deals with T1, Opioid receptor. As to the kind of experiment: Compound was evaluated for the inhibition of [3H]- naloxone Opioid receptors binding using rat brain membrane in the presence of 100 mM Na.
The target of assay [8] is T1, Opioid receptor. The format is cell membranes, Brain, Membrane.
For assay [9], the target named is T1, Opioid receptor. Briefly: Compound was evaluated for the inhibition of [3H]- naloxone binding to Opioid receptors in rat brain membrane in the presence of Na. The assay is classed as cell membranes.
For assay [10], the system named is Mus musculus. As to the kind of experiment: Compound was evaluated for narcotic analgesia activity in mice by mouse writhing assay at 30 mg/kg; Inactive. The arrangement: dose 30 mg/kg. The format is functional, organism-based.
For assay [11], the system named is Mus musculus. As to the kind of experiment: Compound was evaluated for narcotic analgesia activity in mice by the tail flick test; Weak up to 30 and 38% analgesia at 30 mg/kg. The assay is classed as functional, organism-based. More on the design: dose 30 mg/kg. In general terms: Thermal pain tests record how soon the animal reacts.
In assay [12] the test system is Mus musculus. As to the kind of experiment: Compound was evaluated for antagonism of tail-flick analgesia induced by 6.5 mg/kg of morphine sulfate at 10 mg/kg; Inactive. The format is functional, organism-based.

Each structure is given as a SMILES string. Activity calls are given as the source filed them. No cut-off for these calls is given here.

As usually defined, the ED50 is the midpoint of the dose-response relation. A word on the Ki: it is a measure of affinity in units of concentration, obtained from inhibition or displacement.

Regarding `C=CCN(C)C(C)CC(c1ccccc1)(c1ccccc1)C(CC)OC(C)=O` (centres undefined), the ED80 in [1] turned out to be 56.9 mg/kg; in assay [2], 61.4 mg/kg. Besides, the ED50 in [3] was 10 mg/kg; in [4] it was 2.5 mg/kg; in assay [5], 3.1 mg/kg. In addition, the figures for the Ki in [6] and in assay [7] were 0.9 µM and 10 µM, respectively.

Regarding `CCC(O)C(CC(C)N(C)CC1CC1)(c1ccccc1)c1ccccc1` (centres undefined), the results for the Ki in [8] and in assay [9] were 0.6 µM and 5 µM, respectively.

`C=CCN(C)C(C)CC(c1ccccc1)(c1ccccc1)C(O)CC` (centres undefined): the figures for the Ki in assay [8] and in assay [9] were 0.15 µM and 2 µM, respectively.

For `CCC(OC(C)=O)C(CC(C)N(C)CC1CC1)(c1ccccc1)c1ccccc1` (centres undefined), the ED50 entry in [10] and in assay [12] was “inactive” throughout. Besides, in assay [11], the ED50 result was “Weak activity”. For the same compound, the Ki in assay [8] came out at 2 µM; in assay [9], 30 µM.

`CN1CC[C@]23c4c5ccc(O)c4O[C@H]2[C@@H](O)C=C[C@H]3[C@H]1C5.CN1CC[C@]23c4c5ccc(O)c4O[C@H]2[C@@H](O)C=C[C@H]3[C@H]1C5.O=S(=O)(O)O`: the results for the ED50 in assay [3], in [4] and in assay [5] were 3.05 mg/kg, 0.82 mg/kg and 3.3 mg/kg, respectively.
